Source: patent US7524860B2, “Antibacterial agents” (Pfizer Inc., priority 2004, dated 2009)
Converted amounts (≈) assume the structure as drawn.

Experiments:
[1] = test system: Neisseria gonorrhoeae, GC525 (NG-2888); experiment: in-vitro antibacterial activity, microbroth dilution MIC susceptibility testing; format: cell-based; conditions: Neisseria gonorrhoeae, microbroth dilution in gonococcal broth, 20-24 hours at 35 C, lowest concentration preventing visible growth, read-out: MIC
Outline: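 Broth microdilution in gonococcal broth, inoculum ~5×10^5 cfu/mL, 20-24 h at 35 C in humidified CO2; compounds from 2 mg/mL DMSO stocks over 64-0.06 and 1-0.001 ug/mL two-fold series. MIC is the lowest concentration preventing visible growth, read visually; duplicates differing one well give the lower value, two wells the middle value.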

| MIC [1] | melting point | SMILES |
| --- | --- | --- |
| 1 µg/mL (≈ 2.82 µM) | 317 to 321 °C | CCNC(=O)Nc1nc2cc(-c3cncnc3)cc(C(=O)NCC)n2n1 [Example 19, N-Ethyl-2-{[(ethylamino)carbonyl]amino}-7-pyrimidin-5-yl[1,2,4]triazolo[1,5-a]pyridine-5-carboxamide] |
| 1 µg/mL (≈ 2.52 µM) | 328 to 334 °C | CCNC(=O)Nc1nc2cc(-c3cnc(N(C)C)nc3)cc(C(=O)NCC)n2n1 [Example 20, 7-[2-(Dimethylamino)pyrimidin-5-yl]-N-ethyl-2-{[(ethylamino)carbonyl]amino}[1,2,4]triazolo[1,5-a]pyridine-5-carboxamide] |
| > 64 µg/mL | 238 to 241 °C | CCNC(=O)Nc1nc2cc(-c3c(C)noc3C)cc(C(=O)NCC)n2n1 [Example 21, 7-(3,5-Dimethylisoxazol-4-yl)-N-ethyl-2-{[(ethylamino)carbonyl]amino}[1,2,4]triazolo[1,5-a]pyridine-5-carboxamide] |
| > 64 µg/mL | 318 to 321 °C | CCNC(=O)Nc1nc2cc(-c3cccnc3)cc(-c3nnc(C)o3)n2n1 [Example 23, N-Ethyl-N′-[5-(5-methyl-1,3,4-oxadiazol-2-yl)-7-pyridin-3-yl[1,2,4]triazolo[1,5-a]pyridin-2-yl]urea] |
| 16 µg/mL (≈ 40.6 µM) | 248 to 250 °C | CCNC(=O)Nc1nc2cc(-c3cccnc3)cc(N3CCC(N(C)C)C3)n2n1 (stereo not drawn) [Example 130, 1-[5-(3-Dimethylamino-pyrrolidin-1-yl)-7-pyridin-3-yl-[1,2,4]triazolo[1,5-a]pyridin-2-yl]-3-ethyl-urea] |
| 0.25 µg/mL (≈ 0.68 µM) | 298 to 300 °C | CCNC(=O)Nc1nc2cc(-c3cccnc3)cc(N3CCOCC3)n2n1 [Example 133, 1-Ethyl-3-(5-morpholin-4-yl-7-pyridin-3-yl-[1,2,4]triazolo[1,5-a]pyridin-2-yl)-urea] |
| 32 µg/mL (≈ 87.1 µM) | 296 to 298 °C | CCNC(=O)Nc1nc2cc(-c3cccnc3)cc(N3CCC(O)C3)n2n1 (stereo not drawn) [Example 134, 1-Ethyl-3-[5-(3-hydroxy-pyrrolidin-1-yl)-7-pyridin-3-yl-[1,2,4]triazolo[1,5-a]pyridin-2-yl]-urea] |
| 32 µg/mL (≈ 86.6 µM) | 200 to 202 °C | CCNC(=O)Nc1nc2cc(-c3cccnc3)cc(OCCN(C)C)n2n1 [Example 141, 1-[5-(2-Dimethylamino-ethoxy)-7-pyridin-3-yl-[1,2,4]triazolo[1,5-a]pyridin-2-yl]-3-ethyl-urea] |
| 32 µg/mL (≈ 80.9 µM) | 189 to 192 °C (dec.) | CCNC(=O)Nc1nc2cc(-c3cccnc3)cc(OCCN3CCCC3)n2n1 [Example 143, N-Ethyl-N′-[7-pyridin-3-yl-5-(2-pyrrolidin-1-ylethoxy)[1,2,4]triazolo[1,5-a]pyridin-2-yl]urea] |
